Measured values: ChEMBL document CHEMBL1129297 (J Med Chem, 1996)

Columns and labels:
[1] = target: T1, 5-hydroxytryptamine receptor 1A (Homo sapiens, UniProt P08908)
T1 sequence (P08908 whole entry): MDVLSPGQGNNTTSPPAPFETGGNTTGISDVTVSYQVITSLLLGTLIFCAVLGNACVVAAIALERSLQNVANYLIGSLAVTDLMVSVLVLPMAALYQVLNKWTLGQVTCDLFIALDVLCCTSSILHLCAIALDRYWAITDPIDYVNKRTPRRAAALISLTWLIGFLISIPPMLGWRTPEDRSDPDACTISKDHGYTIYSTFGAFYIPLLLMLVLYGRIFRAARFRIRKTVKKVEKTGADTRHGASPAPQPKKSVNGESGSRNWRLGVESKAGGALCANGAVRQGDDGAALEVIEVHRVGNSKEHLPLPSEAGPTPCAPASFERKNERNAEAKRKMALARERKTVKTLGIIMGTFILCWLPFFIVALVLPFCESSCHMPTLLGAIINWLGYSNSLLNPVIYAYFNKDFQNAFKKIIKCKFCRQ

[2] = target: T2, 5-hydroxytryptamine receptor 1B (Homo sapiens, UniProt P28222)
[3] = target: T3, 5-hydroxytryptamine receptor 1D (Homo sapiens, UniProt P28221)
[4] = target: T2, 5-hydroxytryptamine receptor 1B; experiment: Binding affinity towards cloned human 5-hydroxytryptamine 1D receptor was determined using […] as radioligand
Cavia porcellus = organism: Cavia porcellus; experiment: Dissociation constant using guinea pig caudate membrane homogenate.; assay type: ADME
[5] = target: T2, 5-hydroxytryptamine receptor 1B; experiment: Displacement of [3H]-5-HT from human 5-hydroxytryptamine 1D receptor beta
[6] = target: T3, 5-hydroxytryptamine receptor 1D; experiment: Binding affinity of compound against 5-HT1Dalpha Binding affinity of compound against 5-HT1D alpha receptors in human

T2 sequence (P28222 whole entry): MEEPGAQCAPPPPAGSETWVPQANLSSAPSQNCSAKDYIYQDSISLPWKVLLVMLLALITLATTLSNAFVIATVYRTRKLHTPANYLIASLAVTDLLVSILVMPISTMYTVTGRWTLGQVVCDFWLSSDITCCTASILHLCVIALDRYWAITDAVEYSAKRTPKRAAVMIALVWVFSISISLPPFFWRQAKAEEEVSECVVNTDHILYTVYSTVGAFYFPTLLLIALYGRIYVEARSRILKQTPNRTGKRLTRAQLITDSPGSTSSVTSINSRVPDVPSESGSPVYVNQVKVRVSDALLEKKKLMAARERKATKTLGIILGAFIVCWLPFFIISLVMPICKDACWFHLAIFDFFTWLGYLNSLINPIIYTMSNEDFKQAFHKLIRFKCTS
T3 sequence (P28221 whole entry): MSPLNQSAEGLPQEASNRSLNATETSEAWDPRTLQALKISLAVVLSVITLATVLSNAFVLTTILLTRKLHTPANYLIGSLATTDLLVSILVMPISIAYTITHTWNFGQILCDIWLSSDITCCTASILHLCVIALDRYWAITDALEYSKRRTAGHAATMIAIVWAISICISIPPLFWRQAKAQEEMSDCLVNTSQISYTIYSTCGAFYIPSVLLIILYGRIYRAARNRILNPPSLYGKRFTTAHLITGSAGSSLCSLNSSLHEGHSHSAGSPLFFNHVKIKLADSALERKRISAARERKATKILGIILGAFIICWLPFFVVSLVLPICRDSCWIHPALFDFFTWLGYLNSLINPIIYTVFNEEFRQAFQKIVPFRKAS

SMILES	Ki [1] [nM]	Ki [3] [nM]	other results
CC(C)(C)CCCCCCCOc1ccc2[nH]cc(CCN)c2c1	63	–	–
COc1ccc2[nH]cc(CCN)c2c1 [5-METHOXYTRYPTAMINE]	3.2	–	–
COc1ccc2[nH]c3c(c2c1)CC(N(C)C)CC3 (configuration not stated)	–	–	Ki [2]: > 1000 nM
NCCc1c[nH]c2ccc(OCCCCC3CCCCC3)cc12	800	55	–
CCCCCCCCCOc1ccc2[nH]cc(CCNCCCC)c2c1	1550	223	–
CCCCCCCOc1ccc2[nH]cc(CCN)c2c1	38	4.9	–
CCC(=O)Oc1ccc2[nH]cc(CCN(C)C)c2c1	405	–	–
CCc1ccc2[nH]cc(CCN)c2c1	20	–	–
CCCCCCCCCCCOc1ccc2[nH]cc(CCN)c2c1	885	69	–
CCCCCCCCC(=O)Oc1ccc2[nH]cc(CCN(C)C)c2c1	9.3	–	–
CCCCCCCCCCOc1ccc2[nH]cc(CCN)c2c1	575	42	–
CC(C)CCCCCCOc1ccc2[nH]cc(CCN)c2c1	–	42	–
CCCCCCCCOc1ccc2[nH]cc(CCN)c2c1	–	1.6	–
CCCCCCCCCCc1ccc2[nH]c3c(c2c1)CC(N)CC3 (configuration not stated)	–	–	Ki [4]: > 1000 nM
NC(=O)c1ccc2[nH]c3c(c2c1)CC(N)CC3 (configuration not stated)	–	–	Ki [2]: 10 nM; pKD (Cavia porcellus): 8
COc1ccc2[nH]c3c(c2c1)CC(N)CC3 (configuration not stated)	–	1190	Ki [5]: 342 nM
CC(C)(C)CCCCCCOc1ccc2[nH]cc(CCN)c2c1	920	16	–
CCCOc1ccc2[nH]cc(CCN)c2c1	88	–	–
CCc1ccc2[nH]cc(CCN(C)C)c2c1	15	–	–
CCCCCCCCCOc1ccc2[nH]cc(CCN(C)C)c2c1	575	–	–
CC(=O)c1ccc2[nH]cc(CCN)c2c1 [ACETRYPTINE]	1.3	–	–
CCCCCOc1ccc2[nH]cc(CCN)c2c1	42	1.5	–
CCCCCCCCCOc1ccc2[nH]c3c(c2c1)CCN(C)C3	–	–	Ki [4]: > 1000 nM
CCCCCCCCCOc1ccc2[nH]c3c(c2c1)CC(N)CC3 (configuration not stated)	–	–	Ki [6]: 2350 nM; Ki [2]: 172 nM
CCCCCCCCCCc1ccc2[nH]cc(CCN)c2c1	–	210	–
CCCCCCOc1ccc2[nH]c3c(c2c1)CC(N)CC3 (configuration not stated)	–	1100	Ki [2]: 188 nM
